From patent US20240166635A1, “AMINOHETEROARYL KINASE INHIBITORS” (Anrui Biomedical Technology (Guangzhou) Co.,Ltd., priority 2020, published 2024) come the findings set out here.

Structures are written as SMILES.

Holding throughout (format): biochemical
One experiment has as its target CDK4/Cyclin D1 (Homo sapiens (Human), UniProt P11802). As to the kind of experiment: CDK4/CyclinD1 kinase inhibitory activity (Caliper mobility shift).
A further experiment addresses CDK1/CyclinB (Homo sapiens (Human), UniProt P06493). As to the kind of experiment: CDK1/CyclinB kinase inhibitory activity (Caliper mobility shift). The following applies: read-out: CDK1/Cyclin B1 IC50.
A further experiment deals with CDK6/CyclinD1 (Homo sapiens (Human), UniProt Q00534). Put plainly: CDK6/CyclinD1 kinase inhibitory activity (Caliper mobility shift). The following applies: read-out: CDK6/Cyclin D1 IC50.
Chain of CDK6/CyclinD1 (Q00534 whole entry): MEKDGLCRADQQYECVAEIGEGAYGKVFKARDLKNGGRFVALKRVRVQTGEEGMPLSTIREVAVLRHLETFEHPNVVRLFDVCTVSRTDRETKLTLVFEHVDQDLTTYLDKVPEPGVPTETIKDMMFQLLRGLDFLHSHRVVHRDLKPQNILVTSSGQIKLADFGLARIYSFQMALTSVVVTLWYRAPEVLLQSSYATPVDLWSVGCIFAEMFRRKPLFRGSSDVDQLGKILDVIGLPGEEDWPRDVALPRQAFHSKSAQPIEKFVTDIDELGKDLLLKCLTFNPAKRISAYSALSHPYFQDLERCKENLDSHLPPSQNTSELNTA
Chain of CDK6/CyclinD1 (P24385 whole entry partner): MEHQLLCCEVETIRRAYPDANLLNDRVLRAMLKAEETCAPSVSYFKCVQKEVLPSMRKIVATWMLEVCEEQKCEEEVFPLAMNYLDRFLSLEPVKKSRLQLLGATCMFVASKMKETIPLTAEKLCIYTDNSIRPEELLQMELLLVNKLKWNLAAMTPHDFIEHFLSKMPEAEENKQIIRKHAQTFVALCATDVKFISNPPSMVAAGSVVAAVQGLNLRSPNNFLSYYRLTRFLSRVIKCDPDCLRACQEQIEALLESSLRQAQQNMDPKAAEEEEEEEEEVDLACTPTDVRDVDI
The target in the next experiment is CDK2/CyclinE1 (Homo sapiens (Human), UniProt P24941). As to the kind of experiment: CDK2/CyclinE1 kinase inhibitory activity (Caliper mobility shift). The following applies: read-out: CDK2/Cyclin El IC50.
For a further experiment, the target named is CDK9/CyclinT1 (Homo sapiens (Human), UniProt P50750). As to the kind of experiment: CDK9/CyclinT1 kinase inhibitory activity (Caliper mobility shift). The note with it: read-out: CDK9/Cyclin T1 IC50.
Chain of CDK9/CyclinT1 (P50750 whole entry): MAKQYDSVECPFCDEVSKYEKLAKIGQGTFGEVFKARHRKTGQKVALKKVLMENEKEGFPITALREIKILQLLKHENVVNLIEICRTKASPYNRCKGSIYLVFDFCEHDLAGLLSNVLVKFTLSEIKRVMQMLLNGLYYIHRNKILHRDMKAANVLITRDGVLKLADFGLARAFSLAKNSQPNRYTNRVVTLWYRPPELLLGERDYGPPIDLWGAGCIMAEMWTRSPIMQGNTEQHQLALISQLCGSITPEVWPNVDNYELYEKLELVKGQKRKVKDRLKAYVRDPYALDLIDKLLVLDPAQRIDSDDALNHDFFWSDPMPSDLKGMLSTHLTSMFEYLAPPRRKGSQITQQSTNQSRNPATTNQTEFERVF
Chain of CDK9/CyclinT1 (O60563 whole entry partner): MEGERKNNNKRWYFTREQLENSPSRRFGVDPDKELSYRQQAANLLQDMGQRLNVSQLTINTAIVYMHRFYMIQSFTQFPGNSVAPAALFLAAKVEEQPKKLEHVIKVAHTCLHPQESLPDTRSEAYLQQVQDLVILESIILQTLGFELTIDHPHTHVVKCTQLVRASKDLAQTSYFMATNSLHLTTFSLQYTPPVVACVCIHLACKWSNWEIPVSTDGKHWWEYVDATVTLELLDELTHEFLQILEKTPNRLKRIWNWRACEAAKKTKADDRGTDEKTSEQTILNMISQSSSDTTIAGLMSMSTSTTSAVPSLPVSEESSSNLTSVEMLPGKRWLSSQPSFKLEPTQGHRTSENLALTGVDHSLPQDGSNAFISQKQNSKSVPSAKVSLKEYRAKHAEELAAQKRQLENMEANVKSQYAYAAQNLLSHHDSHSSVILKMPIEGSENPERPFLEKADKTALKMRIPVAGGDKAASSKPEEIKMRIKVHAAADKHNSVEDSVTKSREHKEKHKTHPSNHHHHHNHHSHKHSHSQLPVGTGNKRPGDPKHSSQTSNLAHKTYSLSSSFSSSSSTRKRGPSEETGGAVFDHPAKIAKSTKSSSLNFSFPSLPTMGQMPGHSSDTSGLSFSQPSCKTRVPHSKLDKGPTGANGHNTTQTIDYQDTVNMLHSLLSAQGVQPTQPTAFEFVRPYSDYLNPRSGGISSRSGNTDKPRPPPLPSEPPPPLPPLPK
The target of another experiment is CDK7/CyclinH/MAT1 (Homo sapiens (Human), UniProt P50613). As to the kind of experiment: CDK7/CyclinH/MAT1 kinase inhibitory activity (Caliper mobility shift).
Chain of CDK7/CyclinH/MAT1 (P50613 whole entry): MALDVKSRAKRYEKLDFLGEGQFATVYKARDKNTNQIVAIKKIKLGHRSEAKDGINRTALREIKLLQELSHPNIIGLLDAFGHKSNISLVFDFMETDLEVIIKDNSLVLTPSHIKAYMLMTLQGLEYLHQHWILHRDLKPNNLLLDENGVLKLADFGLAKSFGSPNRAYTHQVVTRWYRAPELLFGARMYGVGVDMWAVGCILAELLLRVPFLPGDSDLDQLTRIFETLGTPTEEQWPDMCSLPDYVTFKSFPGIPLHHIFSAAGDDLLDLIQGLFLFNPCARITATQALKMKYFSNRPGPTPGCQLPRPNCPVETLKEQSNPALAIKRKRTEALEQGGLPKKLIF
Chain of CDK7/CyclinH/MAT1 (P51946 whole entry partner): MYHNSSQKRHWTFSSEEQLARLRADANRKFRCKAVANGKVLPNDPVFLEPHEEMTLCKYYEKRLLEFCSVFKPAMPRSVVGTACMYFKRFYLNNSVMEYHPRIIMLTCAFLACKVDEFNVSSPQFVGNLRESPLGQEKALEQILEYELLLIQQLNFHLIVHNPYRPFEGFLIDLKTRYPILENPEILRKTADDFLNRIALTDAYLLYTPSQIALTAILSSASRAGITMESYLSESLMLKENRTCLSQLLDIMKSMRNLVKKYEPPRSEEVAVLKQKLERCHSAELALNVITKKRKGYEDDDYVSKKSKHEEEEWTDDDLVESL
Chain of CDK7/CyclinH/MAT1 (P51948 whole entry partner): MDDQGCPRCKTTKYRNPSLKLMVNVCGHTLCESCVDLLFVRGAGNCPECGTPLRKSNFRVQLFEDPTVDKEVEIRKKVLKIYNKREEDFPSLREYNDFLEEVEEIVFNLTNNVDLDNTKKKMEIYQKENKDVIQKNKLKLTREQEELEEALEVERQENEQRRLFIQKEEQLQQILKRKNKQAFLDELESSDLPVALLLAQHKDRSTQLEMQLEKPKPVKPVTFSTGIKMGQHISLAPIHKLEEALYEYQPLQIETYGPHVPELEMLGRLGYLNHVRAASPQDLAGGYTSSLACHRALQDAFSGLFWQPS

Chain of CDK1/CyclinB (P06493 whole entry): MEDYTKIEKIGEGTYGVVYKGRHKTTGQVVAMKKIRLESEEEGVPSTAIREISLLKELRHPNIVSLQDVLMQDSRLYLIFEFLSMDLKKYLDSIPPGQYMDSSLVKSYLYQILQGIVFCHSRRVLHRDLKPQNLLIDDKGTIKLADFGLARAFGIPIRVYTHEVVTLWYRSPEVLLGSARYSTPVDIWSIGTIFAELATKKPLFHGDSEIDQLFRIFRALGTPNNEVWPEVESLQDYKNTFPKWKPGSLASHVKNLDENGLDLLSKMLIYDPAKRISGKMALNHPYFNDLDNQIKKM
Chain of CDK1/CyclinB (P14635 whole entry partner): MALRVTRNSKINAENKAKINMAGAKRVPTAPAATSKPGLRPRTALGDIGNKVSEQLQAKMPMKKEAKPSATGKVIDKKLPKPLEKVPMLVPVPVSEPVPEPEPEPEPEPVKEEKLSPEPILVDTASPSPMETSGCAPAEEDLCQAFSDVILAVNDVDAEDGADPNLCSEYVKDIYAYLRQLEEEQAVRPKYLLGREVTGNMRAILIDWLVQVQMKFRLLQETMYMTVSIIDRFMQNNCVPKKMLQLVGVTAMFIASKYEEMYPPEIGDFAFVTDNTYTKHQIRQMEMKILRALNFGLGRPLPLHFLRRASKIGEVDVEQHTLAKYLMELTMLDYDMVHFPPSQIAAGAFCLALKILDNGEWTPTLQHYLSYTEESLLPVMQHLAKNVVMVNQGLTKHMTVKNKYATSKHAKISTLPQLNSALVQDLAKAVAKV
Chain of CDK4/Cyclin D1 (P11802 whole entry): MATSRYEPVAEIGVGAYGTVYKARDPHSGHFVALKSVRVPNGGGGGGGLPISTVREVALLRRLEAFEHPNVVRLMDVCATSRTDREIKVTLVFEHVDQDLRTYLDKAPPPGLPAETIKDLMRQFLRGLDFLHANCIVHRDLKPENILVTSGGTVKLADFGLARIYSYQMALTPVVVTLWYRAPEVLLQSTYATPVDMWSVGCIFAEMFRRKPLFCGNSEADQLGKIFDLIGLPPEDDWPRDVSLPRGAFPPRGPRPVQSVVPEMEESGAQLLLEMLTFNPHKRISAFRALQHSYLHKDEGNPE
Chain of CDK4/Cyclin D1 (P24385 whole entry partner): as the sequence (P24385 whole entry partner) above

Turning to `C[C@]1(O)CC(F)(F)C[C@H]1Oc1nc(NC2CCN(S(C)(=O)=O)CC2)ncc1C#N` (relative stereo) [Example 4b, cis-4-((4,4-difluoro-2-hydroxy-2-methylcyclopentyl)oxy)-2-((1-(methylsulfonyl)piperidin-4-yl)amino)pyrimidine-5-carbonitrile], the IC50 was 100 to 1000 nM on CDK4/Cyclin D1; 100 to 1000 nM at CDK1/CyclinB; 10 to 100 nM at CDK6/CyclinD1; 10 to 100 nM on CDK2/CyclinE1; at least 1000 nM on CDK9/CyclinT1.
With `C[C@]1(O)CCC[C@H]1Oc1nc(NC2CCN(S(C)(=O)=O)CC2)ncc1C#N` (relative stereo) [Example 5a, cis-4-((2-hydroxy-2-methylcyclopentyl-4,4-d2)oxy)-2-((1-(methylsulfonyl)piperidin-4-yl)amino)pyrimidine-5-carbonitrile], the IC50 on CDK4/Cyclin D1 was below 10 nM; at CDK1/CyclinB, 10 to 100 nM; on CDK6/CyclinD1, 10 to 100 nM; on CDK2/CyclinE1, below 10 nM; on CDK9/CyclinT1, 100 to 1000 nM.
Turning to `C[C@]1(O)CCC[C@H]1Oc1nc(NC2CCN(S(C)(=O)=O)CC2)ncc1C#N` (relative stereo) [Example 5b, cis-4-((2-hydroxy-2-methylcyclopentyl-4,4-d2)oxy)-2-((1-(methylsulfonyl)piperidin-4-yl)amino)pyrimidine-5-carbonitrile], the IC50 was 100 to 1000 nM at CDK4/Cyclin D1; 100 to 1000 nM at CDK1/CyclinB; 10 to 100 nM at CDK6/CyclinD1; 10 to 100 nM on CDK2/CyclinE1; at least 1000 nM at CDK9/CyclinT1.
Turning to `C[C@]1(O)COC[C@H]1Oc1nc(NC2CCN(S(C)(=O)=O)CC2)ncc1C(F)(F)F` (relative stereo) [Example 104b, cis-3-methyl-4-((2-((1-(methylsulfonyl)piperidin-4-yl)amino)-5-(trifluoromethyl)pyrimidin-4-yl)oxy)tetrahydrofuran-3-ol], the IC50 at CDK4/Cyclin D1 was 100 to 1000 nM; on CDK1/CyclinB, 100 to 1000 nM; on CDK6/CyclinD1, 100 to 1000 nM; on CDK2/CyclinE1 it was 10 to 100 nM; on CDK9/CyclinT1 it was at least 1000 nM.
For the molecule `CC1(O)CC(F)(F)CC1Oc1nc(NC2CCN(S(=O)(=O)CC3CC3)CC2)ncc1C#N` (single isomer, unassigned) [Example 44a], the IC50 on CDK4/Cyclin D1 was 100 to 1000 nM; at CDK1/CyclinB it was 100 to 1000 nM; at CDK6/CyclinD1 it was 10 to 100 nM; on CDK2/CyclinE1 it was 10 to 100 nM; on CDK9/CyclinT1, at least 1000 nM.
On to `CC1(O)COCCC1Oc1nc(NC2CCN(S(C)(=O)=O)CC2)ncc1C#N` (single isomer, unassigned) [Example 45b], for which the IC50 on CDK4/Cyclin D1 was 100 to 1000 nM; on CDK1/CyclinB, at least 1000 nM; on CDK6/CyclinD1 it was 100 to 1000 nM; at CDK2/CyclinE1, 100 to 1000 nM; at CDK9/CyclinT1, at least 1000 nM.
Consider `CC1(O)CCC(F)(F)CC1Oc1nc(NC2CCN(S(C)(=O)=O)CC2)ncc1C#N` (single isomer, unassigned) [Example 46a], for which the IC50 on CDK4/Cyclin D1, on CDK6/CyclinD1 and on CDK2/CyclinE1 was 100 to 1000 nM each time.
With `Cn1cc(S(=O)(=O)N2CCC(Nc3ncc(C#N)c(OC4CCCC4(C)O)n3)CC2)cn1` (single isomer, unassigned) [Example 48b], the IC50 on CDK4/Cyclin D1 is 10 to 100 nM; on CDK1/CyclinB, 10 to 100 nM; at CDK6/CyclinD1, 10 to 100 nM; at CDK2/CyclinE1 it was below 10 nM; on CDK9/CyclinT1, at least 1000 nM.
For `N#Cc1cnc(Nc2ccc(S(N)(=O)=O)cc2)nc1N1CCCC(c2ccccc2)C1` (single isomer, unassigned) [Example 85], the IC50 on CDK7/CyclinH/MAT1 is 100 to 1000 nM; on CDK1/CyclinB it was 10 to 100 nM; at CDK6/CyclinD1 it was 100 to 1000 nM; on CDK2/CyclinE1, below 10 nM; at CDK9/CyclinT1, 100 to 1000 nM.
For the molecule `CNS(=O)(=O)c1ccc(Nc2ncc(C(F)(F)F)c(O[C@H]3CCOC[C@H]3O)n2)c(F)c1` (single isomer, unassigned) [Example 101b, cis-3-fluoro-4-((4-((3-hydroxytetrahydro-2H-pyran-4-yl)oxy)-5-(trifluoromethyl)pyrimidin-2-yl)amino)-N-(methyl-d3)benzenesulfonamide], the IC50 on CDK4/Cyclin D1 and at CDK6/CyclinD1 was at least 1000 nM in each case.
On to `CNS(=O)(=O)c1ccc(Nc2ncc(C(F)(F)F)c(OC3CCOCCC3O)n2)cc1` (single isomer, unassigned) [Example 102b, 4-((4-((5-hydroxyoxepan-4-yl)oxy)-5-(trifluoromethyl)pyrimidin-2-yl)amino)-N-(methyl-d3)benzenesulfonamide], for which the results for the IC50 on CDK4/Cyclin D1 and at CDK2/CyclinE1 were at least 1000 nM and below 10 nM, respectively.
With `CNS(=O)(=O)c1ccc(Nc2ncc(C(F)(F)F)c(OC3CCOCCC3O)n2)cc1` (single isomer, unassigned) [Example 102c, 4-((4-((5-hydroxyoxepan-4-yl)oxy)-5-(trifluoromethyl)pyrimidin-2-yl)amino)-N-(methyl-d3)benzenesulfonamide], the IC50 is at least 1000 nM at CDK4/Cyclin D1 and below 10 nM at CDK2/CyclinE1.
In the case of `CNS(=O)(=O)c1ccc(Nc2ncc(C(F)(F)F)c(OC3CCOCCC3O)n2)cc1` (single isomer, unassigned) [Example 102d, 4-((4-((5-hydroxyoxepan-4-yl)oxy)-5-(trifluoromethyl)pyrimidin-2-yl)amino)-N-(methyl-d3)benzenesulfonamide], the IC50 was at least 1000 nM on CDK4/Cyclin D1 and below 10 nM on CDK2/CyclinE1.
Take `CC1(O)COCCC1Oc1nc(NC2CCN(S(C)(=O)=O)CC2)ncc1C(F)(F)F` (single isomer, unassigned) [Example 124b]: the IC50 was 100 to 1000 nM on CDK4/Cyclin D1; at least 1000 nM at CDK1/CyclinB; 100 to 1000 nM on CDK6/CyclinD1; 100 to 1000 nM on CDK2/CyclinE1; at least 1000 nM on CDK9/CyclinT1.
For `N#Cc1cnc(Nc2ccc(S(N)(=O)=O)cc2)nc1OCC1CCCC1` [Example 1, 4-((5-cyano-4-(cyclopentylmethoxy)pyrimidin-2-yl)amino)benzenesulfonamide], the IC50 was at least 1000 nM on CDK7/CyclinH/MAT1; 10 to 100 nM at CDK1/CyclinB; at least 1000 nM on CDK6/CyclinD1; 10 to 100 nM on CDK2/CyclinE1; 10 to 100 nM on CDK9/CyclinT1.
Turning to `CC1(COc2nc(Nc3ccc(S(N)(=O)=O)cc3)ncc2C#N)CCCCC1` [Example 14], the IC50 on CDK7/CyclinH/MAT1 is at least 1000 nM; on CDK1/CyclinB, 100 to 1000 nM; on CDK6/CyclinD1, at least 1000 nM; on CDK2/CyclinE1 it was 10 to 100 nM; on CDK9/CyclinT1 it was 100 to 1000 nM.
With `N#Cc1cnc(Nc2ccc(S(N)(=O)=O)cc2)nc1OCC1(CO)CCCC1` [Example 15], the IC50 on CDK7/CyclinH/MAT1 is 100 to 1000 nM; at CDK1/CyclinB, 10 to 100 nM; on CDK6/CyclinD1, 100 to 1000 nM; on CDK2/CyclinE1 it was below 10 nM; on CDK9/CyclinT1, 100 to 1000 nM.
On to `N#Cc1cnc(Nc2ccc(S(N)(=O)=O)cc2)nc1OCC1(CO)CCCCC1` [Example 17], for which the IC50 at CDK7/CyclinH/MAT1 was at least 1000 nM; at CDK1/CyclinB, 10 to 100 nM; at CDK6/CyclinD1, 100 to 1000 nM; on CDK2/CyclinE1 it was below 10 nM; at CDK9/CyclinT1 it was 100 to 1000 nM.
As for `N#Cc1cnc(Nc2ccc(S(=O)(=O)NC3COC3)cc2)nc1N1CCCCC1` [Example 66, 4-((5-cyano-4-(piperidin-1-yl)pyrimidin-2-yl)amino)-N-(oxetan-3-yl)benzenesulfonamide], the IC50 is at least 1000 nM on CDK7/CyclinH/MAT1; 10 to 100 nM on CDK1/CyclinB; 100 to 1000 nM at CDK6/CyclinD1; below 10 nM at CDK2/CyclinE1; 100 to 1000 nM at CDK9/CyclinT1.
Consider `C[C@H]1CCCN(c2nc(Nc3ccc(S(N)(=O)=O)cc3)ncc2C#N)C1` [Example 71], for which the IC50 at CDK7/CyclinH/MAT1 is at least 1000 nM; at CDK1/CyclinB, 10 to 100 nM; on CDK6/CyclinD1 it was 100 to 1000 nM; on CDK2/CyclinE1 it was below 10 nM; on CDK9/CyclinT1, 10 to 100 nM.
Take `C[C@@H]1CCCN(c2nc(Nc3ccc(S(N)(=O)=O)cc3)ncc2C#N)C1` [Example 72]: the IC50 on CDK7/CyclinH/MAT1 is at least 1000 nM; at CDK1/CyclinB, 100 to 1000 nM; on CDK6/CyclinD1, 100 to 1000 nM; on CDK2/CyclinE1 it was 10 to 100 nM; at CDK9/CyclinT1, 100 to 1000 nM.
Consider `C[C@@H]1CCCCN1c1nc(Nc2ccc(S(N)(=O)=O)cc2)ncc1C#N` [Example 73], for which the IC50 at CDK7/CyclinH/MAT1 was 100 to 1000 nM; on CDK1/CyclinB, 10 to 100 nM; at CDK6/CyclinD1 it was 100 to 1000 nM; at CDK2/CyclinE1, below 10 nM; on CDK9/CyclinT1 it was 100 to 1000 nM.
For the molecule `C[C@H]1CCCCN1c1nc(Nc2ccc(S(N)(=O)=O)cc2)ncc1C#N` [Example 74], the IC50 on CDK7/CyclinH/MAT1 is at least 1000 nM; on CDK1/CyclinB it was 10 to 100 nM; on CDK6/CyclinD1, 100 to 1000 nM; at CDK2/CyclinE1, below 10 nM; at CDK9/CyclinT1 it was 100 to 1000 nM.
Consider `CC1(C)CCCN(c2nc(Nc3ccc(S(N)(=O)=O)cc3)ncc2C#N)C1` [Example 83], for which the IC50 is at least 1000 nM at CDK7/CyclinH/MAT1; 10 to 100 nM at CDK1/CyclinB; 100 to 1000 nM at CDK6/CyclinD1; below 10 nM at CDK2/CyclinE1; 10 to 100 nM on CDK9/CyclinT1.
`NS(=O)(=O)c1ccc(Nc2ncc(F)c(N3CCCCC3)n2)cc1` [Example 86]: the IC50 is at least 1000 nM at CDK7/CyclinH/MAT1; 10 to 100 nM on CDK1/CyclinB; at least 1000 nM at CDK6/CyclinD1; 10 to 100 nM at CDK2/CyclinE1; 10 to 100 nM on CDK9/CyclinT1.
For `N#Cc1cnc(Nc2ccc(S(N)(=O)=O)cc2)nc1-c1ccc(O)cc1` [Example 92, 4-((5-cyano-4-(4-hydroxyphenyl)pyrimidin-2-yl)amino)benzenesulfonamide], the IC50 at CDK7/CyclinH/MAT1 is at least 1000 nM; at CDK1/CyclinB it was 10 to 100 nM; at CDK6/CyclinD1 it was 100 to 1000 nM; on CDK2/CyclinE1, below 10 nM; on CDK9/CyclinT1, 100 to 1000 nM.
As to `N#Cc1cnc(Nc2ccc(S(N)(=O)=O)cc2)nc1-c1ccccc1` [Example 93], the IC50 was at least 1000 nM at CDK7/CyclinH/MAT1; 100 to 1000 nM on CDK1/CyclinB; at least 1000 nM on CDK6/CyclinD1; 10 to 100 nM on CDK2/CyclinE1; 100 to 1000 nM at CDK9/CyclinT1.
